Measured values as given in EP3747280A1, “ANTIMICROBIAL COMBINATION FOR USE IN ANIMAL FEEDS” (Lucta, S.A., priority 2019, dated 2020).

How the values were obtained:
[1] = Stability test in an animal feed (GC/FID quantification of the active ingredient in fish feed over storage time); assay type: physicochemical
Text: The animal feed used was a commercial fish feed having a 52 wt% of crude protein.
Two 200 g samples of the commercial feed were taken for the application of each of the mixtures A and B.
A sterile plastic bag was spread out on a laboratory tray, and 200 g of the commercial feed was deposited on it. With the help of a liquid diffuser bottle, by means of short pulsations, 3 g of the mixture A, previously diluted to 10 wt% in vegetable oil, was applied to the feed.
The bag was closed and shaken, and the feed additive mixture was spread by manual friction in order to distribute it homogeneously all over the feed. Then, the feed containing the mixture A was put in a plastic container. The same process was carried out with mixture B instead of mixture A.
Each of these feed samples (200 g) containing mixture A or mixture B were divided into two and put into sterile cans (100 g of feed in each) for the different thermal treatments at room temperature (RT) and freezer temperature (FT).
Thus, an analytical method by capillary gas chromatography (high separation efficiency) and flame ionization detection (high sensitivity) ([…]) was developed. An Accelerated Solvent Extractor (ASE) extraction was made on the experimental feed samples and residual fats were eliminated from the chromatographic column using backflush.
In a mortar, about 5 g of the experimental feed sample were exactly weighted. 3 g of Celite 545 were added and mixed. The mixture was put in an ASE extraction cell (22 ml) and the sample was extracted with an 80%/20% hexane/acetone mixture at 100 °C and 1500 psi with 5 successive cycles (heating time 5 min, flush 40%, purge 60s) using an ASE equipment.
After extraction, enough anhydrous sodium sulfate was added to the extracts to absorb remaining water and solid residues. All the liquid extract was collected in a 50 ml beaker. The sodium sulfate was cleaned from the extraction tubes with some ml of the 80% /20% hexane/acetone mixture and added to the beaker. It was made up with the 80% /20% hexane/acetone mixture and mixed thoroughly. In a 2 ml glass vial to the GC/FID about 1 ml of the extract was taken. When some precipitate appeared, it was centrifuged at 6000 rpm 5 min.
The same protocol shown above was performed with the experimental feed samples but adding previously 0.2 ml of the 10,000 mg/l standard to 5 g of feed in the ASE extraction cell.
The standards, the experimental feed sample extract and its corresponding spiked sample extract were injected in the GC/FID equipment, minimum by duplicate, using the chromatographic conditions given above. The quantity spiked to the feed sample was at least the same quantity expected in the feed sample. If the area of the spiked sample didn't double at least the area of the corresponding non spiked sample, a high concentration of standard was used to spike the sample.
Results were calculated by standard addition method, taking into account the weight of the feed samples extracted and the standard concentrations.

[2] = in animal feeds, in 20 to 40 days; higher depending on the thermal treatment of feed; cited from earlier work
[3] = tested on: Vibrio campbellii; test: MIC assay, positive control; assay type: cell-based; conditions: positive control of the MIC test
Protocol: It was tested whether the experimental products (i.e. comparative examples 1 and 2, and examples 1 to 3) could inactivate diverse shrimp or fish and shrimp bacterial pathogens when directly interacting under an in vitro setting.
Bacterial growth was evaluated by visual and optical density.

Question: With `C(=C\C1OCCO1)/c1ccccc1` [EAAC, cinnamaldehyde ethylene glycol acetal] as the compound, how does the “Amount of active agent” value ([1]; feed containing AC and EAAC 50:50, FT, 7 days) read?
Answer: 269 mg/kg

Question: What about the “Amount of active agent” value ([1]; feed containing AC and EAAC 50:50, FT, 14 days) of the same compound?
Answer: 220 mg/kg

Question: What about the “Amount of active agent” value ([1]; feed containing AC and EAAC 50:50, FT, 21 days) of the same compound?
Answer: 265 mg/kg

Question: And the “Amount of active agent” value ([1]; feed containing AC and EAAC 50:50, FT, 28 days)?
Answer: 238 mg/kg

Question: What about the “Amount of active agent” value ([1]; feed containing AC and EAAC 50:50, FT, 35 days) of the same compound?
Answer: 197 mg/kg

Question: And the “Amount of active agent” value ([1]; feed containing AC and EAAC 50:50, FT, 42 days)?
Answer: 224 mg/kg

Question: What about the “Amount of active agent” value ([1]; feed containing AC and EAAC 50:50, RT, 7 days) of the same compound?
Answer: 288 mg/kg

Question: What about the “Amount of active agent” value ([1]; feed containing AC and EAAC 50:50, RT, 14 days) of the same compound?
Answer: 236 mg/kg

Question: What about the “Amount of active agent” value ([1]; feed containing AC and EAAC 50:50, RT, 21 days) of the same compound?
Answer: 258 mg/kg

Question: What about the “Amount of active agent” value ([1]; feed containing AC and EAAC 50:50, RT, 28 days) of the same compound?
Answer: 237 mg/kg

Question: What about the “Amount of active agent” value ([1]; feed containing AC and EAAC 50:50, RT, 35 days) of the same compound?
Answer: 191 mg/kg

Question: What about the “Amount of active agent” value ([1]; feed containing AC and EAAC 50:50, RT, 42 days) of the same compound?
Answer: 229 mg/kg

Question: And the “Amount of active agent” value ([1]; feed containing a mixture of AC and EAAC, molar ratio 50:50, stored at freezer temperature (FT), 0 days)?
Answer: 264 mg/kg

Question: And the “Amount of active agent” value ([1]; feed containing a mixture of AC and EAAC, molar ratio 50:50, stored at room temperature (RT), 0 days)?
Answer: 264 mg/kg

Question: For `O=CC=Cc1ccccc1` [AC, cinnamaldehyde], which losses [2] is on record?
Answer: 30-50%

Question: Which “inhibition at the expected concentration” value [3] does the source give for gentamycin here?
Answer: 4 mg/L
